From patent publication US9115367B2, “Stomata-increasing agent, polypeptide, method for increasing number and/or density of stomata in plant, and method for increasing yield of plant” (KYOTO UNIVERSITY, priority 2009, dated 2015) come the findings set out here.

Data set [1] has as its system Arabidopsis thaliana {Lti6b-GFP line}. Description: Administration of purified recombinant stomagen to germinated seedlings (Example 4). The data set is classed as in vivo. As to the method: Seeds of Arabidopsis thaliana {Lti6b-GFP line} were maintained in a B5 sterilized medium {manufactured by NIHON PHARMACEUTICAL CO., LTD, catalogue number: 399-00621} for germination. To the Lti6b-GFP line at 2 days after germination was administered the purified recombinant stomagen obtained in Example 2, so as to have a concentration of 2 μM. Thereafter, the Lti6b-GFP line was grown for 3 days at 22° C. The abaxial epidermis of the cotyledons was observed under a confocal microscope. The same operation was carried out as described above, using as a control an Lti6b-GFP line to which stomagen was not administered. The abaxial epidermis of the cotyledons was observed. A confocal microscopic image of abaxial epidermis of the cotyledon of the Lti6b-GFP-expressing line to which the purified recombinant stomagen was not administered in Example 4 is shown in FIG. 26 (a) and a confocal microscopic image of abaxial epidermis of the cotyledon of the Lti6b-GFP-expressing line to which the purified recombinant stomagen (2 μM) was administered in Example 4 is shown in FIG. 26 (b). In the figures, a scale bar represents 50 μm.

Another data set concerns soybean (Kariyutaka). Briefly: Addition of synthetic stomagen to soybean shoot apex (Example 8). The note with it: 1 μM, 10 μM or 100 μM added to shoot apex at second leaf stage, grown for a week. In kind it is in vivo. As to the method: The seeds of soybean (Kariyutaka) were seeded to a pot containing potting compost, germinated and then grown until the second leaf stage. Then, the synthetic stomagen obtained in Example 5 was added to the shoot apex, so as to have a concentration of 1 μM, 10 μM or 100 μM. Thereafter, the resulting plant was grown for a week and observed under a differential interference microscope {manufactured by Zeiss, trade name: Axioskop plus microscope}, to determine the number of stomata in a square area of 0.22 mm^2. Then, stomatal density was calculated. Here, statistical analysis was conducted using R statistical analysis software. […] In the figure, an open triangle, an open square and an open circle each show a different plant.

Data set [2] has as its system Arabidopsis thaliana Col-0 line. Description: Heat and lyophilization treatment of stomagen, then stomatal density test (Test Example 16). The note with it: 60° C. for 5 minutes, 90° C. for 5 minutes or lyophilized; administered at 3 μM, cotyledon. The data set is classed as in vivo. As to the method: The chemically synthesized stomagen obtained in Example 5 was incubated at 60° C. for 5 minutes (sample number 3) or at 90° C. for 5 minutes (sample number 4). In addition, the chemically synthesized stomagen obtained in Example 5 was lyophilized (sample number 5).
The seeds of Arabidopsis thaliana Col-0 line (stock number: CS60000) were maintained and germinated in a B5 sterilized medium. To the Arabidopsis thaliana Col-0 line (stock number: CS60000) at 2 days after germination was administered the untreated stomagen (sample number 2), the stomagen incubated at 60° C. for 5 minutes (sample number 3), the stomagen incubated at 90° C. for 5 minutes (sample number 4), or the lyophilized stomagen (sample number 5), so as to have a concentration of 3 μM.
Thereafter, the Arabidopsis thaliana Col-0 line (stock number: CS60000) was grown at 22° C. for 3 days. Next, the cotyledon was collected, and the surface of the cotyledon was observed under a confocal microscope {manufactured by Zeiss, trade name: LSM510 META microscope}, to determine the number of stomata in a square area of 0.22 mm^2. Then, stomatal density was calculated. […] Stomatal density was calculated by carrying out the same operation as described above with the use of Arabidopsis thaliana Col-0 line (stock number: CS60000) to which stomagen was not administered as a control (sample number 1). […]

Another data set relates to spch mutant. Briefly: Administration of purified recombinant stomagen to spch mutant (Test Example 9). The note with it: 2 μM administered to spch mutant at 2 days after germination, grown 3 days; abaxial epidermis of cotyledon. In kind it is in vivo, Arabidopsis thaliana. As to the method:
The seeds of the spch mutant or the seeds of Arabidopsis thaliana Col-0 line (stock number: CS60000) {wild-type strain} were maintained in a B5 sterilized medium for germination. To the spch mutant or the wild-type strain at 2 days after germination was administered the purified recombinant stomagen obtained in Example 2, so as to have a concentration of 2 μM. Thereafter, the spch mutant or the wild-type strain was grown at 22° C. for 3 days. The abaxial epidermis of the cotyledon was observed under a confocal microscope {manufactured by Zeiss, trade name: LSM510 META microscope}. The abaxial epidermis of the cotyledons was observed by carrying out the same operation was carried out as described above with the use of a spch mutant line to which stomagen was not administered as a control. A confocal microscopic image of abaxial epidermis of the cotyledon of the spch mutant to which purified recombinant stomagen was not administered in Test Example 9 is shown in FIG. 28 (a), a confocal microscopic image of abaxial epidermis of the cotyledon of the spch mutant to which purified recombinant stomagen (2 μM) was administered in Test Example 9 is shown in FIG. 28 (b), and a confocal microscopic image of abaxial epidermis of the cotyledon of the wild-type strain to which purified recombinant stomagen (2 μM) was administered in Test Example 9 is shown in FIG. 28 (c).

The test system of data set [3] is Arabidopsis thaliana {Lti6b-GFP line}. Briefly: Administration of synthetic stomagen to germinated seedlings (Example 6). The data set is classed as in vivo. As to the method:
The seeds of Arabidopsis thaliana {Lti6b-GFP line} were maintained in a B5 sterilized medium for germination. To the Lti6b-GFP line at 2 days after germination was administered the synthetic stomagen obtained in Example 5, so as to have a concentration of 300 nM. Thereafter, the Lti6b-GFP line was grown for 3 days at 22° C. Next, the cotyledon was collected. The surface was observed under a confocal microscope {manufactured by Zeiss, trade name: LSM510 META microscope}, to determine the number of stomata in a square area of 0.22 mm^2. Then, stomatal density was calculated. Here, statistical analysis was conducted by using R statistical analysis software. In addition, stomatal density was calculated by carrying out the same operation as described above with the use of an Lti6b-GFP line to which stomagen was not administered as a control. The result of examining the relationship between the amount of synthesized stomagen and stomatal density in Example 6 is shown in FIG. 27.

Data set [4] concerns rice {strain “Nipponbare”}. Briefly: Administration of synthetic stomagen to rice seeds (Test Example 14). The note with it: 200 μL of 80 μM stomagen added to 5 mL water at seeding; abaxial epidermis of second leaf at 32 days after seeding; vs not administered. The data set is classed as in vivo. As to the method:
The seeds of rice {strain “Nipponbare”} were seeded to a container {50-mL volume, manufactured by greiner} with 5 mL of desalted water, and thereafter 200 μL of 80 μM stomagen (the synthetic stomagen obtained in Example 5) was added thereto. Then, the seeds were maintained at 22° C. for 8 days. Thereafter, the resulting plant was grown at 22° C. in a B5 sterilized medium. The second leaves of rice at 32 days after seeding were collected. Then, the second leaves were fixed and made transparent, and then stomata were stained by carrying out the same operation as in Test Example 1. Thereafter, the abaxial epidermis of the second leaves was observed under a differential interference microscope {manufactured by Zeiss, trade name: Axioskop plus microscope}. The abaxial epidermis of the second leaves of the rice at 32 days after seeding was observed by carrying out the same procedure as in the above with the use of a rice to which stomagen was not administered as a control. A differential interference image of abaxial epidermis of the second leaf of the rice to which synthesized stomagen was administered in Test Example 14 is shown in FIG. 39 (a) and a differential interference image of abaxial epidermis of the second leaf of the rice to which synthesized stomagen was not administered in Test Example 14 is shown in FIG. 39 (b). In the figures, a framed part represents a stoma. […]

Where [5] appears, read: 2 μM at 2 days after germination, grown 3 days at 22° C., abaxial epidermis of cotyledon, vs not administered.

Where no end group is shown, it is not given here.

Turning to “purified recombinant stomagen: stomagen expressed in tobacco-cultured BY-2 cells and purified from culture supernatant by reversed-phase HPLC (IGSTAPTCTYNECRGCRYKCRAEQVPVEGNDPINSAYHYRCVCHR; Stomagen; UniProt Q9SV72 58-102, looked up)”, in data set [1] (setting [5]), the number of stomata result was “increased” and the stomatal density entry is listed as “increased”. Moreover, the “stomatal density, concentration dependence” value in data set [1] (recombinant stomagen expressed in BY-2 cells) is “concentration-dependently increase”.
With “stomagen: polypeptide comprising the amino acid sequence shown in SEQ ID NO: 6; 45-amino-acid peptide having six cysteine residues (IGSTAPTCTYNECRGCRYKCRAEQVPVEGNDPINSAYHYRCVCHR; listed as Arabidopsis thaliana)”, in the data set on soybean (Kariyutaka), the “relationship between stomagen concentration and stomatal density” value was “positive correlation”. Further, in data set [2], the “stability to heat and drying (stomatal density after treatment)” value was “stable to heat and drying”. In the data set on spch mutant, the stomata entry is “do not increase”.
Turning to “synthetic stomagen: chemically synthesized polypeptide (45 amino acids) comprising 58th to 102nd amino acid residues of SEQ ID NO: 1, refolded by dialysis (IGSTAPTCTYNECRGCRYKCRAEQVPVEGNDPINSAYHYRCVCHR; also: refolded by dialysis, disulfide pairing not given here; listed as Arabidopsis thaliana)”, the stomatal density result in data set [3] (300 nM at 2 days after germination, grown 3 days at 22° C., abaxial epidermis of cotyledon, vs not administered) is “increases”; in data set [4], “increase”. The “stomatal density, concentration dependence” value in data set [3] (chemically synthesized stomagen) is on record as “concentration-dependently increase”. Besides, the number of stomata entry in data set [4] is “increase”.
